Test results from PMC10454375, “Cell-Impermeable Inhibitors Confirm That Intracellular Human Transglutaminase 2 Is Responsible for the Transglutaminase-Associated Cancer Phenotype” (International Journal of Molecular Sciences, 2023).
Peptide text beside a SMILES is read from it. * marks the point of attachment. X1 = C=CC(=O)NCCCCC(NC(=O)OCc1ccccc1)C(=O)N1CCN(C(=O)C(CCC(=O)*)NC(=O)c2cccc3ccccc23)CC1

Assays:
TG6 = target: T1, TG6 (Homo sapiens, UniProt O95932); assay: TGase isozyme selectivity, TG6 with AL5 substrate; assay type: biochemical; conditions: [I]/α identical to that of the TG2 assay
T1 construct: purchased Zedira GmbH (Darmstadt, Germany)
T1 sequence (O95932 1-706): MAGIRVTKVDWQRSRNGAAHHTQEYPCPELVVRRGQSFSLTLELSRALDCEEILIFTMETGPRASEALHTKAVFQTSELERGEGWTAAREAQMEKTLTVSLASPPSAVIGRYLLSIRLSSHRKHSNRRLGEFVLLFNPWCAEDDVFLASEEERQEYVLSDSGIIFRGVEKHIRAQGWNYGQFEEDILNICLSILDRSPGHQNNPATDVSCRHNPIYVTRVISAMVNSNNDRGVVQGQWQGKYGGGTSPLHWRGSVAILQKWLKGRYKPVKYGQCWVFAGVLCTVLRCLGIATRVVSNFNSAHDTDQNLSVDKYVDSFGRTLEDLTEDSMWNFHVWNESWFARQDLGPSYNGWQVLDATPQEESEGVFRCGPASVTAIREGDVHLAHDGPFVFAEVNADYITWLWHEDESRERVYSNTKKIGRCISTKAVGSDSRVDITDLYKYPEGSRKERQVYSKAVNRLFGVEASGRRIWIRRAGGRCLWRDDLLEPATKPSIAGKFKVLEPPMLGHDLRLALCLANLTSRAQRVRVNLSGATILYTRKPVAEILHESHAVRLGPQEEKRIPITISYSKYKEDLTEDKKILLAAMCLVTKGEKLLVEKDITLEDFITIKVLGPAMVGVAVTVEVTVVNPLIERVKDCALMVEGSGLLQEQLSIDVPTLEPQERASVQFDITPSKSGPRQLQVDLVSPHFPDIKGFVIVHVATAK
Text: (§1) In the development of probes for TGases, isozyme selectivity is always a significant challenge. Since the catalytic machinery of the active sites of all TGases features a conserved Gly-Gln-Cys-Trp-Val sequence, selectivity for one isozyme over the others requires exploitation of slight differences in the protein substrate binding sites. In order to assess the isozyme selectivity of our cell-impermeable inhibitors, TG2 and four other therapeutically relevant TGases (Factor XIII, TG1, TG3, and TG6) were exposed to a concentration of inhibitor representing the same apparent competition with respect to the assay substrate (AL5 [38] or A101 [42, 43]). In other words, both the substrate and inhibitor concentrations were varied so that the [I]/α values were identical. […] This provides confidence that in further applications, these cell-impermeable inhibitors will selectively target TG2 over other transglutaminases.
[…] In brief, 125 µL assay buffer #1 (containing TRIS, CaCl2, and NaCl pH 7.5), 18 µL assay buffer #2 (containing TCEP and acceptor substrate H-Gly-OMe pH 7.5), and a respective concentration of inhibitor aqueous working stock balanced with various volumes of water were combined in a 96-well black plate with clear bottom/top. […] The isopeptidase activity of the respective TGase was then monitored at Ex/Em = 313/418 nm with a BioTek Synergy 4 plate reader at 25 °C. […]

FXIIIa = target: T2, FXIIIa (Homo sapiens, UniProt P00488); assay: TGase isozyme selectivity, FXIIIa with A101 substrate; assay type: biochemical; conditions: [I]/α identical to that of the TG2 assay
T2 construct: purchased Zedira GmbH (Darmstadt, Germany)
T2 sequence (P00488 39-732 limits assumed): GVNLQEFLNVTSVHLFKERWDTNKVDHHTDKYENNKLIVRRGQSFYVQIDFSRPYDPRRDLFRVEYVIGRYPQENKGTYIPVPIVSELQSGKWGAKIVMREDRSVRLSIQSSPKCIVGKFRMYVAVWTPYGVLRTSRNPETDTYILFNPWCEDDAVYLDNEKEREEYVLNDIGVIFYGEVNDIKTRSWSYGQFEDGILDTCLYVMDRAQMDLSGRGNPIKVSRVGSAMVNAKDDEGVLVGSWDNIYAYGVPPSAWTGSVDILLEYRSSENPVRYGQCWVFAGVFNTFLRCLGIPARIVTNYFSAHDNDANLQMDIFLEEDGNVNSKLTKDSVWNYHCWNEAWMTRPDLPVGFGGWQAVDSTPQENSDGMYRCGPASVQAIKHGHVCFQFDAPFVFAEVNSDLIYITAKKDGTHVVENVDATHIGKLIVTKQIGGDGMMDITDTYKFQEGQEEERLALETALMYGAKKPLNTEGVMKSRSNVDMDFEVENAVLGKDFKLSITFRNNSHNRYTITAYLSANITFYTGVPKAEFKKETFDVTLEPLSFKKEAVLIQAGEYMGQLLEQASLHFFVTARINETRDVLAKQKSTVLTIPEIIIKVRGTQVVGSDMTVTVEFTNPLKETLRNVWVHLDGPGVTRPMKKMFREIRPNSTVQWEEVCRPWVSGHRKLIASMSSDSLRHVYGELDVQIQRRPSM
Text: as §1
To monitor the activity of TG3a and TG6, a FRET-quenched substrate A101 (Zedira Gmbh) was used. […] The isopeptidase activity of the respective TGase was then monitored at Ex/Em = 313/418 nm with a BioTek Synergy 4 plate reader at 25 °C. […]

SMILES: C=CC(=O)NCCCCC(NC(=O)OCc1ccccc1)C(=O)N1CCN(C(=O)C(CCC(=O)NCCCCCC(=O)NC(CC(=O)O)C(=O)NC(CC(=O)O)C(=O)NC(CC(=O)O)C(=O)O)NC(=O)c2cccc3ccccc23)CC1 (stereo not shown) [Compound 17]
- inhibition of TG6 (TG6): no detectable inhibition
- inhibition of Factor XIII (FXIIIa): no detectable inhibition

SMILES: C=CC(=O)NCCCCC(NC(=O)OCc1ccccc1)C(=O)N1CCN(C(=O)C(CCC(=O)NCC(=O)NCC(=O)NCC(=O)NC(CC(=O)O)C(=O)NC(CC(=O)O)C(=O)NC(CC(=O)O)C(=O)O)NC(=O)c2cccc3ccccc23)CC1 (stereo not shown) [Compound 18] (X1-GGGDDD-OH; configuration not given here)
- inhibition of TG6 (TG6): no detectable inhibition
- inhibition of Factor XIII (FXIIIa): no detectable inhibition
